Reference: patent US10221161B2, “Inhibitors of plasma kallikrein” (Kalvista Pharmaceuticals Limited, priority 2013, dated 2019)
pIC50: −log10 of the molar value.

Assays:
Human plasma kallikrein = Human plasma kallikrein (Homo sapiens (Human), UniProt P03952); experiment: Determination of the IC50 for plasma kallikrein (fluorogenic substrate H-DPro-Phe-Arg-AFC); type: biochemical; settings: 37° C., read-out: IC50 (human PKal)
Protocol: Determination of the IC50 Plasma Kallikrein Plasma kallikrein inhibitory activity in vitro was determined using standard published methods (see e.g. Johansen et al., Int. J. Tiss. […] Shori et al., Biochem. Pharmacol., 1992, 43, 1209; Stürzebecher et al., Biol. Chem. Hoppe-Seyler, 1992, 373, 1025). Human plasma kallikrein (Protogen) was incubated at 37° C. with the fluorogenic substrate […] and various concentrations of the test compound.

Human KLK1 = Human KLK1 (Homo sapiens (Human), UniProt P06870); experiment: Determination of the IC50 for KLK1 (fluorogenic substrate H-DVal-Leu-Arg-AFC); type: biochemical; settings: human KLK1, 37° C.
Chain of Human KLK1 (P06870 25-262): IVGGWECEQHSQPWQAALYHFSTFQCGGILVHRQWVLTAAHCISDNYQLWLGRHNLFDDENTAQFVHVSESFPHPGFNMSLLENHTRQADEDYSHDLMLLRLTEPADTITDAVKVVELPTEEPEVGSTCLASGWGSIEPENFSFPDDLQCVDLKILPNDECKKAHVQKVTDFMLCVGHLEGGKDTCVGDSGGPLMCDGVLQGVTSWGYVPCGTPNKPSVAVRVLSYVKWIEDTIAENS
Protocol: Selected compounds were further screened for inhibitory activity against the related enzyme KLK1. The ability of the compounds of formula (I) to inhibit KLK1 may be determined using the following biological assay:
Determination of the IC50 for KLK1
KLK1 inhibitory activity in vitro was determined using standard published methods (see e.g. Johansen et al., Int. J. Tiss. Reac. 1986, 8, 185; Shori et al., Biochem. Pharmacol., 1992, 43, 1209; Stürzebecher et al., Biol. Chem. Hoppe-Seyler, 1992, 373, 1025). Human KLK1 (Callbiochem) was incubated at 37° C. with the fluorogenic substrate H-DVal-Leu-Arg-AFC and various concentrations of the test compound. Residual enzyme activity (initial rate of reaction) was determined by measuring the change in optical absorbance at 410 nm and the IC50 value for the test compound was determined.

Chain of Human plasma kallikrein (P03952 391-638 limits assumed): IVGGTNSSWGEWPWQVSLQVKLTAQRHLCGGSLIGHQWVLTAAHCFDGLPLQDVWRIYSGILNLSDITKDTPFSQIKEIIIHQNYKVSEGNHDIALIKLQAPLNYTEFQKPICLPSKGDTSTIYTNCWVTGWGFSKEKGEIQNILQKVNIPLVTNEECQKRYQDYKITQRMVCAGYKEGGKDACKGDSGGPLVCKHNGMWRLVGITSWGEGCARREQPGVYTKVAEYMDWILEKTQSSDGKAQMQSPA
Chain of Human plasma kallikrein (P03952 20-390 partner limits assumed): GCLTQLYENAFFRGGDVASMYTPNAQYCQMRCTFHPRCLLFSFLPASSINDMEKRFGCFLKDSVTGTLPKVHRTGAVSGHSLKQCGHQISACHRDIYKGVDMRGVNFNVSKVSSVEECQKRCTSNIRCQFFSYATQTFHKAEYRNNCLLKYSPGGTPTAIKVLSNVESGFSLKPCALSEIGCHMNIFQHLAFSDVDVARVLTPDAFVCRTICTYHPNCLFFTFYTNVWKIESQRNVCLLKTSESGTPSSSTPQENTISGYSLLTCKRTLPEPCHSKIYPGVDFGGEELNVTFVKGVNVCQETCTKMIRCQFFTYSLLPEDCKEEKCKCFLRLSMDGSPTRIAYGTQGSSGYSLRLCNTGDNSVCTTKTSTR

Row | SMILES | pIC50 (Human plasma kallikrein) | pIC50 (Human KLK1)
1 | CCOC(=O)C1CCN(c2ccc(Cc3cncc(C(=O)NCc4ccc5c(N)nccc5c4)c3)cn2)C1 (stereo not shown) [Example 72, Ethyl 1-{5-[(5-{[(1-aminoisoquinolin-6-yl)methyl]carbamoyl}pyridin-3-yl)methyl]pyridin-2-yl}pyrrolidine-3-carboxylate] | 6.07 | 5.44
2 | CN(C)[C@H]1CCN(c2cc(Cc3cncc(C(=O)NCc4ccc5c(N)nccc5c4)c3)ccn2)C1 (stereo in doubt) [Example 91, N-[(1-Aminoisoquinolin-6-yl)methyl]-5-({2-[3-(dimethylamino)pyrrolidin-1-yl]pyridin-4-yl}methyl)pyridine-3-carboxamide] | 5.77 | 5.68
3 | Cc1cnn(Cc2ccc(Cc3cncc(C(=O)NCc4c(C)nc5[nH]ccc(C)c4-5)c3)cc2)c1 [Example 12, N-({2,4-Dimethyl-7H-pyrrolo[2,3-b]pyridin-3-yl}methyl)-5-({4-[(4-methylpyrazol-1-yl)methyl]phenyl}methyl)pyridine-3-carboxamide] | 6.61 | 4.83
4 | CCN(CC)c1ccc(Cc2cncc(C(=O)NCc3ccc4c(N)nccc4c3)c2)cn1 [Example 66, N-[(1-Aminoisoquinolin-6-yl)methyl]-5-{[6-(diethylamino)pyridin-3-yl]methyl}pyridine-3-carboxamide] | 7.28 | 5.23
5 | Cc1cnn(Cc2ccc(Cn3cc(C(=O)NCc4ccc5c(N)nccc5c4)ccc3=O)cc2)c1 [Example 15, N-[(1-Aminoisoquinolin-6-yl)methyl]-1-({4-[(4-methylpyrazol-1-yl)methyl]phenyl}methyl)-6-oxopyridine-3-carboxamide] | 6.80 | 4.75
6 | Nc1nccc2cc(CNC(=O)c3cncc(Cc4ccc(N5CCCC5=O)nc4)c3)ccc12 [Example 53, N-[(1-Aminoisoquinolin-6-yl)methyl]-5-{[6-(2-oxopyrrolidin-1-yl)pyridin-3-yl]methyl}pyridine-3-carboxamide] | 6.70 | 5.41
7 | COc1cccc(CN2CCN(Cc3cncc(C(=O)NCc4ccc5c(N)nccc5c4)c3)CC2)c1 [Example 49, N-[(1-Aminoisoquinolin-6-yl)methyl]-5-({4-[(3-methoxyphenyl)methyl]piperazin-1-yl}methyl)pyridine-3-carboxamide] | 5.16 | < 5.00
8 | Nc1nccc2cc(CNC(=O)c3ccc(=O)n(Cc4csc(-c5ccccc5)n4)c3)ccc12 [Example 14, N-[(1-Aminoisoquinolin-6-yl)methyl]-6-oxo-1-[(2-phenyl-1,3-thiazol-4-yl)methyl]pyridine-3-carboxamide] | 5.57 | 5.38
9 | Cc1cnn(Cc2ccc(Cc3cncc(C(=O)NCc4c(C)cc(CN)cc4C)n3)cc2)c1 [Example 95, N-{[4-(Aminomethyl)-2,6-dimethylphenyl]methyl}-6-({4-[(4-methylpyrazol-1-yl)methyl]phenyl}methyl)pyrazine-2-carboxamide] | 7.27 | < 4.40
10 | CNc1ncc(C(=O)NCc2ccc3c(N)nccc3c2)cc1Cc1ccc2nc(C)ccc2c1 [Example 21, N-[(1-Aminoisoquinolin-6-yl)methyl]-6-(methylamino)-5-[(2-methylquinolin-6-yl)methyl]pyridine-3-carboxamide] | 7.27 | 5.22
11 | Cc1ccc2cc(Cc3cncc(C(=O)NCc4ccc5c(N)nccc5c4)n3)ccc2n1 [Example 10, N-[(1-Aminoisoquinolin-6-yl)methyl]-6-[(2-methylquinolin-6-yl)methyl]pyrazine-2-carboxamide] | 6.71 | 5.52
12 | CCN(CC)c1cc(Cc2cncc(C(=O)NCc3ccc4c(N)nccc4c3)c2)ccn1 [Example 87, N-[(1-Aminoisoquinolin-6-yl)methyl]-5-{[2-(diethylamino)pyridin-4-yl]methyl}pyridine-3-carboxamide] | 6.45 | 5.30
13 | COc1ncc(C(=O)NCc2ccc3c(N)nccc3c2)cc1Cc1ccc2nc(C)ccc2c1 [Example 18, N-[(1-Aminoisoquinolin-6-yl)methyl]-6-methoxy-5-[(2-methylquinolin-6-yl)methyl]pyridine-3-carboxamide] | 6.15 | 5.76
14 | COc1cc(Cc2cncc(C(=O)NCc3ccc4c(N)nccc4c3)c2)ccc1Cn1cc(C)cn1 [Example 33, N-[(1-Aminoisoquinolin-6-yl)methyl]-5-({3-methoxy-4-[(4-methylpyrazol-1-yl)methyl]phenyl}methyl)pyridine-3-carboxamide] | 7.77 | 4.77
15 | Cc1ccc2cc(Cc3cncc(C(=O)NCc4c(C)nc5[nH]ccc(C)c4-5)c3)ccc2n1 [Example 13, N-({2,4-Dimethyl-7H-pyrrolo[2,3-b]pyridin-3-yl}methyl)-5-[(2-methylquinolin-6-yl)methyl]pyridine-3-carboxamide] | 6.03 | 6.63

Continued, values first:

Row | pIC50 (Human plasma kallikrein) | pIC50 (Human KLK1) | SMILES
16 | 5.12 | 4.53 | Nc1nccc2cc(CNC(=O)c3cncc(CN4CCN(Cc5cccc(F)c5)CC4)c3)ccc12 [Example 46, N-[(1-Aminoisoquinolin-6-yl)methyl]-5-({4-[(3-fluorophenyl)methl]piperazin-1-yl}methyl)pyridine-3-carboxamide]
17 | 4.66 | < 4.40 | Nc1nccc2cc(CNC(=O)c3cncc(CN4CCN(Cc5ccc(F)cc5)CC4)c3)ccc12 [Example 48, N-[(1-Aminoisoquinolin-6-yl)methyl]-5-({4-[(4-fluorophenyl)methyl]piperazin-1-yl}methyl)pyridine-3-carboxamide]
18 | 4.96 | 4.75 | Nc1nccc2cc(CNC(=O)c3cncc(CN4CCN(CC5CCCC5)CC4)c3)ccc12 [Example 43, N-[(1-Aminoisoquinolin-6-yl)methyl]-5-{[4-(cyclopentylmethyl)piperazin-1-yl]methyl}pyridine-3-carboxamide]
19 | 6.52 | 5.55 | Nc1nccc2cc(CNC(=O)c3cncc(Cc4cccc(-n5cccn5)c4)c3)ccc12 [Example 30, N-[(1-Aminoisoquinolin-6-yl)methyl]-5-{[3-(pyrazol-1-yl)phenyl]methyl}pyridine-3-carboxamide]
20 | 6.51 | 5.40 | Nc1nccc2cc(CNC(=O)c3cncc(Cc4ccc(N5CCC(CO)C5)nc4)c3)ccc12 (stereo not shown) [Example 71, N-[(1-Aminoisoquinolin-6-yl)methyl]-5-({6-[3-(hydroxymethyl)pyrrolidin-1-yl]pyridin-3-yl}methyl)pyridine-3-carboxamide]
21 | 6.17 | 5.02 | Nc1nccc2cc(CNC(=O)c3cncc(Cc4ccnc(N5CCC(O)C5)c4)c3)ccc12 (stereo not shown) [Example 81, N-[(1-Aminoisoquinolin-6-yl)methyl]-5-{[2-(3-hydroxypyrrolidin-1-yl)pyridin-4-yl]methyl}pyridine-3-carboxamide]
22 | 4.47 | 4.57 | COc1ccc(CN2CCN(Cc3cncc(C(=O)NCc4ccc5c(N)nccc5c4)c3)CC2)cc1 [Example 45, N-[(1-Aminoisoquinolin-6-yl)methyl]-5-({4-[(4-methoxyphenyl)methyl]piperazin-1-yl}methyl)pyridine-3-carboxamide]
23 | 6.40 | 5.35 | CN1CCN(c2cc(Cc3cncc(C(=O)NCc4ccc5c(N)nccc5c4)c3)ccn2)CC1 [Example 86, N-[(1-Aminoisoquinolin-6-yl)methyl]-5-{[2-(4-methylpiperazin-1-yl)pyridin-4-yl]methyl}pyridine-3-carboxamide]
24 | 6.62 | < 4.40 | Nc1nccc2cc(CNC(=O)c3cncc(Cc4ccc(N5CCC(F)(F)C5)nc4)c3)ccc12 [Example 57, N-[(1-Aminoisoquinolin-6-yl)methyl]-5-{[6-(3,3-difluoropyrrolidin-1-yl)pyridin-3-yl]methyl}pyridine-3-carboxamide]
25 | 4.84 | 4.97 | Nc1nccc2cc(CNC(=O)c3cncc(Cc4ccc(F)nc4)c3)ccc12 [Example 54, N-[(1-Aminoisoquinolin-6-yl)methyl]-5-[(6-fluoropyridin-3-yl)methyl]pyridine-3-carboxamide]
26 | 5.78 | 5.07 | Nc1nccc2cc(CNC(=O)c3cncc(Cc4ccnc(N5CCOCC5)c4)c3)ccc12 [Example 85, N-[(1-Aminoisoquinolin-6-yl)methyl]-5-{[2-(morpholin-4-yl)pyridin-4-yl]methyl}pyridine-3-carboxamide]
27 | 7.05 | 5.12 | Nc1nccc2cc(CNC(=O)c3cncc(Cc4ccnc(N5CCC(F)(F)C5)c4)c3)ccc12 [Example 80, N-[(1-Aminoisoquinolin-6-yl)methyl]-5-{[2-(3,3-difluoropyrrolidin-1-yl)pyridin-4-yl]methyl}pyridine-3-carboxamide]
28 | 7.42 | 5.32 | Nc1nccc2cc(CNC(=O)c3cncc(Cc4ccnc(N5CCCC5)c4)c3)ccc12 [Example 77, N-[(1-Aminoisoquinolin-6-yl)methyl]-5-{[2-(pyrrolidin-1-yl)pyridin-4-yl]methyl}pyridine-3-carboxamide]
29 | 6.86 | 5.06 | Nc1nccc2cc(CNC(=O)c3cncc(Cc4ccc(N5CCC(F)C5)nc4)c3)ccc12 (stereo not shown) [Example 60, N-[(1-Aminoisoquinolin-6-yl)methyl]-5-{[6-(3-fluoropyrrolidin-1-yl)pyridin-3-yl]methyl}pyridine-3-carboxamide]
